Measurements reported in US5405839A, “Vitamin B12 derivative, preparation process thereof, and use thereof” (Teijin Limited, priority 1989, dated 1995).

Experiments:
diol dehydrase [1] = molecular target: T1, diol dehydrase (Klebsiella oxytoca, UniProt Q59470+Q59471+Q59472); experiment: Assay of coenzyme activity (kcat) with diol dehydrase; assay type: biochemical, Klebsiella pneumoniae ATCC 8724; conditions: for coenzyme activity (in words): diol dehydrase; for Kcat (coenzyme activity): diol dehydrase, 1,2-propanediol substrate, 37° C., pH 8.0; method 1) or 2); for Kcat, activity relative to the vitamin B12 coenzyme (adenosylcobalamin): relative to adenosylcobalamin = 100
T1 construct: (alpha beta gamma)2 hexamer
T1 sequence (Q59470 1-554): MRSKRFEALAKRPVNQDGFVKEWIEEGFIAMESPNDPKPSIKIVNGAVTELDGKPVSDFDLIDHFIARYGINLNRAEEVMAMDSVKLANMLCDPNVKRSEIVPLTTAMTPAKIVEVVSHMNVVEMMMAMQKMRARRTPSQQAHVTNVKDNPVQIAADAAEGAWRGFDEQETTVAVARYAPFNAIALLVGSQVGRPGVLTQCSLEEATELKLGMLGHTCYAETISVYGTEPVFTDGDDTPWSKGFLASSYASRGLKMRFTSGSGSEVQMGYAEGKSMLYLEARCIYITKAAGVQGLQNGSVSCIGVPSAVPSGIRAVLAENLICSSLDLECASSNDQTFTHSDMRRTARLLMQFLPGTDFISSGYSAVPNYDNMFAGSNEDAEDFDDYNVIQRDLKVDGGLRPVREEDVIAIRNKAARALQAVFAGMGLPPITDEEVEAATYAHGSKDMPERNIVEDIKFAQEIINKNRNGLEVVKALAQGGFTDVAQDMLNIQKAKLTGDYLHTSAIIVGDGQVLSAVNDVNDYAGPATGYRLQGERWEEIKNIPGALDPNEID
T1 sequence (Q59471 1-224): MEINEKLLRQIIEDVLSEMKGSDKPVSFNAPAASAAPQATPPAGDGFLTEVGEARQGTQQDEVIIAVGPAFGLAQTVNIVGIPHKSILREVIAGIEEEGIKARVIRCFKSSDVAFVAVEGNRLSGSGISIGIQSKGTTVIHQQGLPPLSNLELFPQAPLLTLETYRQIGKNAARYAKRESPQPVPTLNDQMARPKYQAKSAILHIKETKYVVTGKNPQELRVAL
T1 sequence (Q59472 1-173): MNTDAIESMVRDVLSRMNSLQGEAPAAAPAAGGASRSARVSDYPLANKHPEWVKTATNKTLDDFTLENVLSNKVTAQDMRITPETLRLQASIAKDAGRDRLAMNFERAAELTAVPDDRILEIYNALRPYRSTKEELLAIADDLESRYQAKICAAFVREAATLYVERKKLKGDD
Protocol: The coenzyme activities of vitamin B12 derivatives prepared in Examples 1 to 10 were assayed according to the two methods shown below.
1) Assay of coenzyme activity by using 3-methyl-2-benzothiazolinonehydrazone
The assay was carried out according to the method of Toraya et al. (J. Biol. Chem., vol. 252, p. 963-970, 1977).
(§1) As the enzyme, diol dehydrase was employed. […] Diol dehydrase was highly purified from Klebsiella pneumoniae ATCC 8724 according to the method of Poznanskaya (Arch. Biochem. Biophys., vol. 194, p. 379-386, 1979) and adjusted to a solution of 0.3 Unit/ml with 0.05 M potassium phosphate buffer (pH 8.0). As the substrate of this enzyme, a 1 M aqueous 1,2-propanediol solution was employed.
(§2) In an ice-water bath, 0.1 ml of the substrate solution, 0.1 ml of 0.5 M aqueous potassium chloride solution, 0.1 ml of diol dehydrase solution, and 0.6 ml of 0.05 M potassium phosphate buffer (pH 8.0) were mixed, and to the mixture were added, in the dark, 0.1 ml of 0.2 mM vitamin B12 coenzyme (adenosylcobalamin), vitamin B12 (cyanocobalamin) or each vitamin B12 derivative prepared in Examples 1 to 10. After the mixture was incubated in the dark at 37° C. for 10 minutes, 1 ml of 0.1M potassium citrate buffer (pH 3.6) was added to stop the enzyme reaction, and then 0.5 ml of 0.1% aqueous 3-methyl-2-benzothianolinonehydrazone was added, followed by a continuation of the incubation at 37° C. for 15 minutes. To the mixture was added 1 ml of water, and the absorbance at 305 nm was measured by a Shimazu Double-beam Spectrophotometer Model UV-140-02 Model and the coenzyme activity (kcat) was calculated.
2) Assay of coenzyme activity using alcohol dehydrogenase and reduced nicotinamide adenine dinucleotide
The assay was carried out according to the method of Toraya et al. (Biochemistry, vol. 18, p. 417-426, 1979).
The diol dehydrase employed was diluted with 0.05 M potassium phosphate buffer (pH 8.0) to 0.15 Unit/ml, and 1M aqueous propanediol was used as the substrate solution. By using a 0.05 M potassium phosphate buffer (pH 8.0), 0.5 mg/ml of alcohol dehydrogenase and a 2 mM reduced nicotinamide adenine dinucleotide were prepared. To a mixture of 0.1 ml of the substrate solution, 0.1 ml of the alcohol dehydrogenase solution, 0.1 ml of the reduced nicotinamide adenine dinucleotide solution, and 0.5 ml of the 0.05 M potassium phosphate buffer (pH 8.0) was added 0.1 ml of the diol dehydrase solution. After the mixture was incubated at 37° C. for 5 minutes, there were added, in the dark, 0.1 ml of 0.2 mM vitamin B12 coenzyme (adenosylcobalamin), vitamin B12 (cyanocobalamin) or each vitamin B12 derivative prepared in Examples 1 to 10, and the coenzyme activity (kcat) was calculated by continuously monitoring the decrease in absorbance at 340 nm, by a Union Spectrophotometer SM-401.
The coenzyme activity is higher when the kcat is larger. The activity relative to the vitamin B12 coenzyme (adenosylcobalamin) is also shown in % in Table 1.

diol dehydrase [2] = molecular target: T1, diol dehydrase; experiment: Inhibition constant (Ki) of vitamin B12 derivative against vitamin B12 coenzyme, Lineweaver-Burk plot; assay type: biochemical; conditions: against varied adenosylcobalamin
Protocol: as §1, §2
Namely, in the method 1) in Example 11, by adding adequately varied concentration of the vitamin B12 coenzyme (adenosylcobalamin) to a fixed concentration of each vitamin B12 derivative, the enzyme activity was respectively assayed and the inhibition constant (Ki) was determined by the Lineweaver-Burk plot. The inhibitory activity is stronger when the Ki is smaller.

diol dehydrase [3] = molecular target: T1, diol dehydrase; experiment: Michaelis constant (Km) of vitamin B12 derivative, Lineweaver-Burk plot; assay type: biochemical, Klebsiella pneumoniae ATCC 8724
Protocol: as §1, §2
Namely, in the method 1) in Example 11, the respective enzyme activities were assayed by suitably varying the concentration of the vitamin B12 derivative, and Michaelis constant (km) was determined by the Lineweaver Burk plot. The affinity (binding ability) for the enzyme is higher when the Km is smaller.

[4] = system: mouse leukemia L1210 cells; experiment: Viability of cultured L1210 cells on day 9 by Trypan blue staining; assay type: cell-based; conditions: day 9, MTX 200 nM only; 12960 min
Protocol: The mouse leukemia L1210 cells employed for this experiment were grown and maintained intraperitoneally in DBA mice, taken out together with ascites and aseptically cultured as adapted for RPMI-1640 medium for animal cell culture supplemented with fetal bovine serum (5 v/v %) and ethanolamine (1.2 mg/liter), but devoid of vitamin B12 (cyanocobalamin). Also, 100,000 units of penicillin and 100 mg of streptomycin were added as the antimicrobial agent, per liter of this medium. The L1210 cells grown and adapted in vitro were further adapted to the above-mentioned medium containing 7.0 g/liter of bovine serum albumin in place of the fetal bovine serum, following the method of Fujii et al. (J. Biol. Chem., vol. 256, p. 10329-10334, 1981), and then used for experiment.
To examine the L1210 growth inhibitory activities of the vitamin B12 derivatives synthesized in Examples 2 and 5, first L1210 cells adapted to albumin were inoculated at a density of 5×10^4 cells/ml into the same medium containing folic acid at 10 μM concentration, and a preculture was carried out under a humidified atmosphere of CO2 /air (5%/95%) at 37° C. for 3 days. The cells grown were centrifuged, then washed twice with the same medium containing no folic acid, to prepare an inoculum cell suspension of about 5×10^6 cells/mi. […]

Molecule	coenzyme activity (in words) (diol dehydrase [1])	Ki (diol dehydrase [2]) [µM]	Kcat (coenzyme activity) (diol dehydrase [1]) [s⁻¹]	Kcat, activity relative to the vitamin B12 coenzyme (adenosylcobalamin) (diol dehydrase [1]) [%]	Km (diol dehydrase [3]) [µM]	cells found dead (Trypan blue) [4] [%]
2-(5,6-dimethylbenzimidazolyl)ethyladenosylcobinamide phosphoric acid [Example 6]	no coenzyme activity	52	–	–	–	–
3-(5,6-dimethylbenzimidazolyl)propyladenosylcobinamide phosphoric acid [Example 7]	–	–	199	59	0.82	–
3-imidazolylpropyladenosylcobinamide phosphoric acid [Example 10]	–	1	3	0.9	1.1	–
4-(5,6-dimethylbenzimidazolyl)butyladenosylcobinamide phosphoric acid [Example 8]	–	–	167	50	11.2	–
6-(5,6-dimethylbenzimidazolyl)hexyladenosylcobinamide phosphoric acid [Example 9]	no coenzyme activity	38	–	–	–	–
CN(Cc1cnc2nc(N)nc(N)c2n1)c1ccc(C(=O)N[C@@H](CCC(=O)O)C(=O)O)cc1 [MTX, methotrexate]	–	–	–	–	–	20
C/C1=C2/[N-][C@H]([C@H](CC(N)=O)[C@@]2(C)CCC(=O)NC[C@@H](C)OP(=O)([O-])O[C@H]2[C@@H](O)[C@@H](n3cnc4cc(C)c(C)cc43)O[C@@H]2CO)[C@]2(C)N=C(/C(C)=C3N=C(/C=C4N=C1[C@@H](CCC(N)=O)C\4(C)C)[C@@H](CCC(N)=O)[C@]\3(C)CC(N)=O)[C@@H](CCC(N)=O)[C@]2(C)CC(N)=O.[CH2-][C@H]1O[C@@H](n2cnc3c(N)ncnc32)[C@H](O)[C@@H]1O.[Co] [Vitamin B12 coenzyme, adenosylcobalamin, reference compound]	–	–	337	100	0.8	–
